One assay has as its target Carbonic anhydrase 9 (Homo sapiens, UniProt Q16790). Kind of assay: Inhibition of human CA9 pre-incubated for 15 mins by stopped-flow CO2 hydration method.
A further assay deals with Carbonic anhydrase 12 (Homo sapiens, UniProt O43570). Kind of assay: Inhibition of human CA12 pre-incubated for 15 mins by stopped-flow CO2 hydration method.
Assay [1] relates to Oryctolagus cuniculus. Nature of the assay: Antiglaucoma activity in carbomer-induced glaucoma in albino rabbit assessed as reduction in intra ocular pressure dosed as 2% compound solution measured 2 hrs post dose (vehicle treated contralateral eye Rvb = 37 to 39 mmHg). The assay is classed as functional.
The subject of assay [2] is Oryctolagus cuniculus. Nature of the assay: Antiglaucoma activity in carbomer-induced glaucoma in albino rabbit assessed as reduction in intra ocular pressure dosed as 2% compound solution. The conditions noted are these: Eye, TDE = time-dependent effect. The assay is classed as functional, organism-based.
In assay [3] the test system is Oryctolagus cuniculus. Kind of assay: Antiglaucoma activity in carbomer-induced glaucoma in albino rabbit assessed as reduction in intra ocular pressure dosed as 2% compound solution measured 3 to 4 hrs post dose. The assay is classed as functional, organism-based. The conditions noted are these: Eye.
The next assay deals with Carbonic anhydrase 1 (Homo sapiens, UniProt P00915). Kind of assay: Inhibition of human CA1 pre-incubated for 15 mins by stopped-flow CO2 hydration method.
In a further assay the target is Carbonic anhydrase 2 (Homo sapiens, UniProt P00918). Kind of assay: Inhibition of human CA2 pre-incubated for 15 mins by stopped-flow CO2 hydration method.
Assay [4] concerns Oryctolagus cuniculus. Nature of the assay: Antiglaucoma activity in carbomer-induced glaucoma in albino rabbit assessed as reduction in intra ocular pressure dosed as 2% compound solution measured 2 hrs post dose (vehicle treated contralateral eye Rvb = 37 to 40 mmHg). The assay is classed as functional.

Molecules are shown by their SMILES. Structures can show the parent of a compound that is named as a salt. The source made the active and inactive calls. The calls are words filed in the database; no cut-off is given here.

Carbonic anhydrase 12, sequence (O43570 whole entry): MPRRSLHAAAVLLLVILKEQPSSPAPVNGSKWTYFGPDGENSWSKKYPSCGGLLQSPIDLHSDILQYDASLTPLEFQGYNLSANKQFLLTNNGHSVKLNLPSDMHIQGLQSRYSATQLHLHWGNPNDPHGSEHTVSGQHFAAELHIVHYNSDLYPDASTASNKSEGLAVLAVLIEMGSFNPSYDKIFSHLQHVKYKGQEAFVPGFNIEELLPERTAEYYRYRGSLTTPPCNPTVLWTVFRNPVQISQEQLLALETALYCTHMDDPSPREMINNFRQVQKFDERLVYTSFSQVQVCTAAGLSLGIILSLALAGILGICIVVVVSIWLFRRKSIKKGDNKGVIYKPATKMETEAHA
Carbonic anhydrase 1, sequence (P00915 whole entry): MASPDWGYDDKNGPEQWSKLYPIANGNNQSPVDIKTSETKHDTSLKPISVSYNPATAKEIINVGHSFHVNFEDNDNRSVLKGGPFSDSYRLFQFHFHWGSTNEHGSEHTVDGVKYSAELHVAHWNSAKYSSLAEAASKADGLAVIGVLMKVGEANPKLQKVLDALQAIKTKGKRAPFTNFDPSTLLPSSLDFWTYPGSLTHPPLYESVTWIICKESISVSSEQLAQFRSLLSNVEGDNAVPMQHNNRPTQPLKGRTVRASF

On to `CCN(CC)C(=S)S` [DITIOCARB SODIUM], for which the Ki (as a rule, a dissociation constant, usually derived from enzyme kinetics or from competition with a known ligand) on Carbonic anhydrase 9 worked out at 1410 nM; on Carbonic anhydrase 12, 1100 nM. Consider `S=C(S)Nc1nccs1`, for which the affinity at Carbonic anhydrase 9 corresponds to a Ki of 12.6 nM. In the case of `S=C([S-])N1CCN(C(=S)[S-])CC1.[Na+].[Na+]` [PIPERAZINECARBAMODITHIOATE DISODIUM SALT], the Activity in the assay on Oryctolagus cuniculus [1] is 6 mmHg; in the assay on Oryctolagus cuniculus [2] it was “tde”. This compound registered a Ki at Carbonic anhydrase 9 of 37.5 nM. Also, the outcome in the assay with Oryctolagus cuniculus [3] was Active. Take `CCCCN(CC)C(=S)S` [ETHYLBUTYLCARBAMODITHIOATE SODIUM SALT]: the Ki on Carbonic anhydrase 9 was 25.9 nM. As for `S=C(S)NCCN1CCOCC1`, the affinity at Carbonic anhydrase 9 corresponds to a Ki of 4.5 nM. For `CN(C)C(=S)S` [SODIUM DIMETHYLCARBAMODITHIOATE], the Ki on Carbonic anhydrase 9 amounted to 714 nM; at Carbonic anhydrase 1, 699 nM; at Carbonic anhydrase 12, 798 nM; at Carbonic anhydrase 2, 6.91 µM. `S=C(S)NCCN1CCCCC1` had an inhibition constant (Ki) on Carbonic anhydrase 9 of 3.6 nM. The same measure, in the same setting: next, `CCCCN(CCCC)C(=S)S` [DIBUTYLCARBAMODITHIOATE SODIUM SALT]: 50.3 nM.

At Carbonic anhydrase 9, `OCCN(CCO)C(=S)S` showed a Ki of 4.3 nM.

For the compound `S=C(S)NCc1ccccc1` [SODIUM BENZYLCARBAMODITHIOATE], the inhibition constant Ki at Carbonic anhydrase 9 was 19.2 nM.

Take `S=C(S)Nc1ccccc1` [TRIETHYLAMMONIUM PHENYLCARBAMODITHIOATE]: affinity at Carbonic anhydrase 9 was put at a Ki of 4.2 nM.

On Carbonic anhydrase 9, `CN(C(=S)S)c1ccccc1` [SODIUM METHYL(PHENYL)CARBAMODITHIOATE] returned a Ki of 28.2 nM. Consider `S=C(S)N1CCCC1`, for which the Ki at Carbonic anhydrase 9 was 70.4 nM; on Carbonic anhydrase 1, 0.96 nM; at Carbonic anhydrase 12, 46.1 nM; on Carbonic anhydrase 2 it was 0.0275 µM.

In turn, `CN1CCN(NC(=S)S)CC1` registered a Ki at Carbonic anhydrase 9 of 22.1 nM. With `CCC(C)NC(=S)S` (racemic), the Ki on Carbonic anhydrase 9 stood at 4.6 nM. Same read-out and setting: then `CC(C)CN(CC(C)C)C(=S)S` [DIISOBUTYLCARBODITHIOIC ACID SODIUM SALT], with 4.5 nM; and `CN(Cc1ccccc1)C(=S)S` [SODIUM BENZYL(METHYL)CARBAMODITHIOATE], with 53 nM. `O=C(O)CNC(=S)S` returned a Ki at Carbonic anhydrase 9 of 57.1 nM. As to `S=C([S-])N1CCOCC1.[Na+]` [MORPHOLINECARBAMODITHIOATE SODIUM SALT], the Activity result in the assay with Oryctolagus cuniculus [2] is “tde”; in the assay on Oryctolagus cuniculus [4] it was 6 mmHg. On Carbonic anhydrase 9, this compound returned a Ki of 6.2 nM. Further, the result in the assay with Oryctolagus cuniculus [3] was Active. In the case of `O=C(O)[C@@H]1CCCN1C(=S)S`, at Carbonic anhydrase 9, the Ki was 4.1 nM. The compound `S=C(S)NN1CCOCC1` [POTASSIUM MORPHOLINOCARBAMODITHIOATE] came in with a Ki at Carbonic anhydrase 9 of 29.1 nM. On the same count and under the same terms, next, `S=C(S)NCCCn1ccnc1`: 4.3 nM; `S=C(S)NCc1ccncc1`: 26 nM; `CCCN(CCC)C(=S)S` [DIPROPYLCARBAMODITHIOATE SODIUM SALT]: 53.8 nM. The same measure, in the same setting: next, `N#CC1(c2ccccc2)CCN(C(=S)S)CC1`: 757 nM; `CCCCCCN(CCCCCC)C(=S)S` [DIHEXYLCARBAMODITHIOATE SODIUM SALT]: 27.4 nM.

As to `S=C(S)NCCN(CCNC(=S)S)CCNC(=S)S`, on Carbonic anhydrase 9, the Ki turned out to be 27.4 nM.
